Patent US12071436B2, “Anti-parasitic compounds and uses thereof” (Memorial Sloan-Kettering Cancer Center, priority 2016, dated 2024)
Entries after “also recorded” stand apart in the source; their conditions may differ. Read-outs that look alike come from different tables or passages of the source.

Experiments:
[1] = Cytotoxicity (Table 1); type: cell-based
[2] = test system: Trypanosoma cruzi parasites; assay: Trypanosoma cruzi in vitro IC50 (structure-activity analyses); type: cell-based; conditions: infection with Trypanosoma cruzi parasites for 72 hours and treatment with the compound for 72 hours
Experimental: Select compounds described herein were evaluated for structure-activity analyses in vitro.

[3] = Plasma pharmacokinetics and liver distribution study in female BALB/c mice; type: in vivo, mouse; conditions: 100 mg/kg, female BALB/c mice; for Tmax: mouse, plasma, read-out: Tmax (plasma)
Experimental: A plasma pharmacokinetics and liver distribution study of selected compounds, including Pyrrolopyridine-008 (2015-foleyc-216), Pyrrolopyridine-D20-ent (2015-foleyc-217), and Pyrrolopyridine-M03 (2015-foleyc-218), in female BALB/c mice was conducted following a single intraperitoneal and oral administration. […] The blood samples were collected from a set of […] mice at each time point in labeled micro centrifuge tube containing K2EDTA as anticoagulant. Plasma samples were separated by centrifugation at 4000 rpm for 10 min and stored below −70° C. until bioanalysis. After collection of blood sample, animals were humanely euthanized by carbon dioxide asphyxiation to collect liver from Group 1 and Group 2 at all the time points. The collected tissues were rinsed in PBS and were homogenized with nine times of liver weight in ice cold phosphate buffer saline (pH 7.4) and stored below −70° C. until bio-analysis. Total homogenate volume was ten times the tissue weight. All samples were processed for analysis by protein precipitation using acetonitrile and analyzed with fit-for-purpose LC-MS/MS method (LLOQ: 2.01 ng/mL for plasma and 50.30 ng/g for liver). Pharmacokinetic parameters were calculated using the non-compartmental analysis tool of Phoenix WinNonlin® (Version 6.3).

[4] = test system: HepG2 human hepatoma cells; assay: HepG2 cytotoxicity, MTS cell proliferation assay; type: cell-based; conditions: 48 h, n=1
Experimental: (§1) Select compounds described herein were evaluated for structure-activity analyses for anti-plasmodial activity in vitro. For Dd2 EC50 (M), calculations were for n=3. For HepG2 EC50 (M), calculations were for n=1. For the human microsomal stability determination, t was 60 minutes.
Selected compounds were evaluated for cytotoxicity using HepG2 human hepatoma cells. A 384-well clear bottom plate was seeded with 2,500 cells/well and incubated for 24 h. Serial dilutions of the compound (were added to the plate and plates were incubated for an additional 48 h. Viability of cells were assessed by MTS [(3-(4,5-dimethylthiazol-2-yl)-5-(3-carboxymethoxyphenyl)-2-(4-sulfophenyl)-2H-tetrazolium) cell proliferation assay (CellTiter 96® Aqueous non-radioactive cell proliferation assay, Promega) (See Cory et al., Cancer Communications, 3, 1991, p. 207-212).

[5] = test system: P. falciparum Dd2; assay: Anti-plasmodial growth inhibition, SYBR green I-based DNA quantification; type: cell-based; conditions: Plasmodium falciparum, 72 h incubation, n=3
Experimental: as §1
Different dilutions of the compound in RPMI 1640 (Life Technologies) from a stock of 10 mM in dimethyl sulfoxide (DMSO) were added to the culture at a 1% parasitemia and 2% hematocrit in 96-well black plates (Santa Cruz Biotechnology). Maximum DMSO concentration in the culture never exceeded 0.25%. Chloroquine at 1 μM was used as a positive control to determine the baseline value. Following 72 h incubation at 37° C., the ability of the compounds to inhibit growth of the parasite was determined by a SYBR green I-based DNA quantification assay (See Bennett et al., 2004, Chemother. 48, 1807-1810; see also Johnson et al., 2007, Antimicrob. Agents. Chemother. 51, 1926-1933; Smilkstein et al., 2004, Antimicrob. Agents. Chemother. 48, 1803-1806). EC50 was calculated (n=3) from a dose response curve that was generated from a concentration range of 0-20 μM using GraphPad Prism v5.0.

[6] = test system: Asynchronous cultures; assay: Parasitocidal or parasitostatic determination (rate of killing); type: cell-based; conditions: for parasitocidal activity (rate of killing): 3×IC50, asynchronous cultures treated for 12, 24, 48, or 72 hours, washed, monitored for continued growth
Experimental: Asynchronous cultures were grown and treated with compounds, vehicle control or Dihydroartemisinin at 3×IC50 to determine their respective rate of killing curves. Cultures were treated for 12, 24, 48, or 72 hours with compound, washed several times to remove any inhibitor, and monitored for continued growth for several days. […] Overall, the exemplary compounds including, but not limited to, Tan003-M03 and ent-Tan003-D20 are parasitocidal agents blocking parasite maturation at the segmenter stage preventing egress, a novel mechanism of action absent among current antimalarials.

[7] = test system: synchronized parasite cultures (Dd2); assay: Stage specific parasite inhibition (Giemsa smears, flow cytometry); type: cell-based, P. falciparum; conditions: for parasite stage development, Giemsa staining: 3×IC50, synchronized Dd2 cultures treated at ring, trophozoite or schizont stages, smears every 12 hours; for parasite stage progression, flow cytometry: 3×IC50, synchronized Dd2 cultures, YoYo-I DNA staining
Experimental: Select compounds described herein were evaluated for stage specific inhibition of parasite development. Tightly synchronized parasite cultures (Dd2) were treated with 3×IC50 concentrations of compound Tan003-M03 (“M03”), compound ent-Tan003-D20 (“D20-ent”), compound Tan003-O08 (“008”) or compound Tan002-O12 (“012”) at early ring, late ring, trophozoite, and schizont stages. Every 12 hours, Giemsa smears were made for treated cultures and samples were also collected and fixed for flow cytometry. […] Prior to flow analysis, fixed samples were permeabilized, RNase treated, and stained with YoYo-I as described in Bouillon et al., 2013. […] As the parasite matures, the DNA content increases and peaks start to spread to the right because of schizogony. Following reinvasion parasitemia increases in the next growth cycle, which is represented by an increase in peak height.

CCOC(=O)c1cc2c(c(-c3cccc(Br)c3)n1)[C@@H](CCO)N([S@+]([O-])C(C)(C)C)C2 [Compound 51, Ethyl (R)-4-(3-bromophenyl)-2-((R)-tert-butylsulfinyl)-3-(2-hydroxyethyl)-2,3-dihydro-1H-pyrrolo[3,4-c]pyridine-6-carboxylate]
Cytotoxicity [1]: >10 µM | IC50 [2]: > 10000 nM

CN(C)CC#Cc1cccc(-c2nc(C(=O)NCc3ccc4c(c3)OCO4)cc3c2CN([S@+]([O-])C(C)(C)C)C3)c1 [Compound 57, (R)-N-(Benzo[d][1,3]dioxol-5-ylmethyl)-2-(tert-butylsulfinyl)-4-(3-(3-(dimethylamino)prop-1-yn-1-yl)phenyl)-2,3-dihydro-1H-pyrrolo[3,4-c]pyridine-6-carboxamide]
Cytotoxicity [1]: >10 µM | IC50 [2]: 495 nM

CC(C)(C)[S@@+]([O-])N1Cc2cc(C(=O)NCc3ccc4c(c3)OCO4)nc(-c3cccc(Br)c3)c2[C@H]1CCO [Compound 77, (R)-N-(Benzo[d][1,3]dioxol-5-ylmethyl)-4-(3-bromophenyl)-2-((R)-tert-butylsulfinyl)-3-(2-hydroxyethyl)-2,3-dihydro-1H-pyrrolo[3,4-c]pyridine-6-carboxamide]
Cytotoxicity [1]: >10 µM | IC50 [2]: > 10000 nM

CN(C)CC#Cc1cccc(-c2nc(C(=O)NCc3ccc4c(c3)OCO4)cc3c2[C@@H](CCO)N([S@@+]([O-])C(C)(C)C)C3)c1 [Compound 85, (R)-N-(Benzo[d][1,3]dioxol-5-ylmethyl)-2-((S)-tert-butylsulfinyl)-4-(3-(3-(dimethyl-amino)prop-1-yn-1-yl)phenyl)-3-(2-hydroxyethyl)-2,3-dihydro-1H-pyrrolo[3,4-c]pyridine-6-carboxamide]
Cytotoxicity [1]: >10 µM | IC50 [2]: 43.7 nM

CC(C)(C)[S@@+]([O-])N1Cc2cc(C(=O)N[C@@H]3CCN(Cc4ccccc4)C3)nc(-c3cccc(Br)c3)c2[C@H]1CCO [Compound 86, (R)-N-((R)-1-Benzylpyrrolidin-3-yl)-4-(3-bromophenyl)-2-((R)-tert-butylsulfinyl)-3-(2-hydroxyethyl)-2,3-dihydro-1H-pyrrolo[3,4-c]pyridine-6-carboxamide]
Cytotoxicity [1]: >10 µM | IC50 [2]: 2850 nM

CN(C)CC#Cc1cccc(-c2nc(C(=O)N[C@H]3CCN(Cc4ccccc4)C3)cc3c2[C@@H](CCO)N([S@+]([O-])C(C)(C)C)C3)c1 [Compound 89, (R)-N-((S)-1-benzylpyrrolidin-3-yl)-2-((R)-tert-butylsulfinyl)-4-(3-(3-(dimethylamino)prop-1-yn-1-yl)phenyl)-3-(2-hydroxyethyl)-2,3-dihydro-1H-pyrrolo[3,4-c]pyridine-6-carboxamide]
Cytotoxicity [1]: >10 µM | IC50 [2]: 28 nM

CCOC(=O)c1cc2c(c(-c3cccc(C#CCN(C)C)c3)n1)[C@@H](CCO)N([S@+]([O-])C(C)(C)C)C2 [Compound 90, Ethyl (R)-2-((R)-tert-butylsulfinyl)-4-(3-(3-(dimethylamino)prop-1-yn-1-yl)phenyl)-3-(2-hydroxyethyl)-2,3-dihydro-1H-pyrrolo[3,4-c]pyridine-6-carboxylate]
Cytotoxicity [1]: >10 µM | IC50 [2]: 8500 nM

CCOC(=O)c1cc2c(c(-c3ccccc3)n1)[C@@H](CCO)N([S@+]([O-])C(C)(C)C)C2 [Tan002-O12, Ethyl (R)-2-((R)-tert-butylsulfinyl)-3-(2-hydroxyethyl)-4-phenyl-2,3-dihydro-1H-pyrrolo[3,4-c]pyridine-6-carboxylate]
Tmax ([3]; ip, single intraperitoneal dose): 60 min | Tmax ([3]; single oral dose): 30 min | plasma concentrations quantifiable till ([3]; single intraperitoneal dose): 12 h | plasma concentrations quantifiable till ([3]; single oral dose): 12 h | EC50 [4]: > 100000 nM | EC50 [5]: 890 ± 130 nM | parasitocidal activity (rate of killing) [6]: not seen; also recorded: did not show any parasitocidal activity | parasite stage development, Giemsa staining [7]: inhibit parasite development before egress | parasite stage progression, flow cytometry [7]: block parasite stage progression prior to egress

CC(C)(C)[S@@+]([O-])N1Cc2cc(C(=O)NCc3ccc4c(c3)OCO4)nc(-c3cccc(-c4cccnc4)c3)c2[C@H]1CCO [Tan003-O08, (R)-N-(benzo[d][1,3]dioxol-5-ylmethyl)-2-((R)-tert-butylsulfinyl)-3-(2-hydroxyethyl)-4-(3-(pyridin-3-yl)phenyl)-2,3-dihydro-1H-pyrrolo[3,4-c]pyridine-6-carboxamide]
viable parasites in asynchronous culture ([6]; treatment for 72 hours): significantly decreases viable parasites | parasite stage development, Giemsa staining [7]: inhibit parasite development before egress | parasite stage progression, flow cytometry [7]: block parasite stage progression prior to egress

CC(C)(C)[S@@+]([O-])N1Cc2cc(C(=O)NCc3ccccc3F)nc(-c3cccc(-c4cccnc4)c3)c2[C@H]1CCO [ent-Tan003-D20, (R)-2-((R)-tert-butylsulfinyl)-N-(2-fluorobenzyl)-3-(2-hydroxyethyl)-4-(3-(pyridin-3-yl)phenyl)-2,3-dihydro-1H-pyrrolo[3,4-c]pyridine-6-carboxamide]
EC50 [4]: 60000 nM | EC50 [5]: 380 ± 90 nM | parasitocidal activity (rate of killing) [6]: parasitocidal and prohibit progression beyond segmenter stages; also recorded: parasitocidal and prevent any parasite development beyond the schizont stage when treated for at least 48 hours | parasite stage development, Giemsa staining [7]: inhibit parasite development before egress | parasite stage progression, flow cytometry [7]: block parasite stage progression prior to egress
